One block for each molecule: values may come before it.
Assays:
adenylyl cyclase = assay: Forskolin-stimulated cAMP accumulation in human thyrocytes; format: cell-based
Excerpt: (§1) This was important because it has been shown that TSHR mutants signal differently in different cell types. […] TSH and the small molecule ligand agonist that were identified previously specifically increase expression of several genes in thyrocytes (J Biomol Screen 13, 120, 2008; Proc Nat Acad Sci 106, 12471, 2009).

[1] = tested on: 7TMR for vasoactive intestinal peptide; assay: Vasoactive intestinal peptide-stimulated cAMP accumulation in human thyrocytes; format: cell-based
Excerpt: as §1

[2] = tested on: TPO, TSHR, TG, DIO2 and NIS mRNAs; assay: Basal expression of thyroid gene mRNAs in primary cultures of human thyrocytes (quantitative RT-PCR); format: cell-based; settings: 30 μM, 48 hr, IBMX, no agonist
Protocol: FIG. 4B) Thyrocytes were incubated in media containing 2% fetal bovine serum and 1 mM IBMX without or with 30 μM 1 as described in Methods. After 48 h, the cells were lysed and the levels of the mRNAs were measured and normalized to GAPDH mRNA. The mRNA levels are presented as fold stimulation over control. The data are from three independent experiments with duplicate samples are shown.
Culture of primary human thyrocytes.
(§2) Quantitative RT-PCR. mRNA levels were measured using primers and probes were from Applied Biosystems. Quantitative RT-PCR results were normalized to GAPDH to correct for differences in RNA input.

beta-adrenergic receptor = assay: Isoproterenol-stimulated cAMP accumulation in human thyrocytes; format: cell-based
Excerpt: as §1

TSHR [3] = target: T1, TSHR (Homo sapiens, UniProt P16473); assay: TSH-stimulated cAMP production in HEK-EM 293 cells stably expressing TSHRs; format: cell-based; settings: for classification from dose response of TSH-stimulated cAMP (FIG. 11): 1 mU/ml hTSH (EC50 dose)
T1 construct: expressed in transfected cells
Protocol: (§3) After 60 min, the cells were lysed and cAMP levels were measured by ELISA.
(§4) Non-treated cells, incubated with IBMX only, were used as control (basal activity). After 60 min, the cells were lysed and cAMP levels were measured by ELISA. […] After 40 min, the incubation was stopped and total cAMP levels were measured by ELISA.
After 40 min, the incubation was stopped and total cAMP levels were measured by ELISA. The data are from 2 experiments with duplicate samples and are presented as mean±SE.
(§5) Determination of cAMP production.

TSHR [4] = target: T1, TSHR; assay: Basal (agonist-independent) cAMP production in HEK-EM 293 cells stably expressing TSHRs; format: cell-based; settings: for classification from dose response of basal cAMP (inverse agonist activity): 60 min in HBSS + 1 mM IBMX, % of basal activity
Protocol: as §3, §4
HEK-EM 293 cells stably expressing TSHRs were exposed to the noted concentrations of the small molecule ligands for 60 min in HBSS+1 mM IBMX. Non-treated cells, incubated with IBMX only, were used as control (basal activity). After 60 min, the cells were lysed and cAMP levels were measured by ELISA.
as §5

[5] = target: T2, TSHRs on retro-orbital fibroblasts (Homo sapiens, UniProt P16473); assay: TSHR signaling in retro-orbital fibroblasts from patients with Graves' orbitopathy; format: cell-based; settings: preliminary experiment; fibroblasts in cell culture
T2 construct: endogenous in cells; host or cells: cultured retro-orbital fibroblasts from Graves' orbitopathy patients
Excerpt: In a preliminary experiment, it has been shown that compound S2-6 inhibits activation of TSHRs on retro-orbital fibroblasts acquired from patients with Graves' orbitopathy. Retro-orbital fibroblasts were obtained from patients undergoing decompression eye surgery for Graves' orbitopathy and were adapted to cell culture.

TSHR [6] = target: T1, TSHR; assay: 125I-TSH binding to TSHRs on the surface of HEK-EM 293 cells; settings: HEK-EM 293 / HEKTSHR cells
Protocol: HEK-EM293 cells stably expressing TSHRs were seeded into 24-well plates and grown to near confluency. Cell surface binding was measured by incubation in 0.25 ml binding buffer (HBSS containing 2.5% milk powder and 0.2% BSA) containing 60,000 cpm bovine ^125I-TSH without or with xx μM 1 for 2 hr at RT; nonspecific binding was measured in the presence of 1.8 μM unlabeled bovine TSH. Cells were washed 3 times with 0.5 ml ice cold HBSS and lysed with 0.5 ml 0.4 N NaOH, and the cell-associated radioactivity counted in a gamma counter.

TSHR [7] = target: T1, TSHR; settings: cited from earlier work
[8] = cited from earlier work
TPO mRNA = assay: Basal and TSAb-induced up-regulation of TPO mRNA in primary cultures of human thyrocytes; format: cell-based; settings: 30 μM, 1:10 dilutions of GD sera, 48 hr
Protocol: Thyrocytes were incubated in DMEM containing 2% fetal bovine serum without (Control) or with 30 μM compound S2-6 without (basal) or with 1:10 dilutions of GD sera at 37 C. After 48 hr, the buffers were aspirated, the cells were lysed and the levels of TPO mRNA were measured and normalized to GAPDH mRNA. The mRNA levels are presented as fold of basal levels (Control). The data from 2 independent experiments with duplicate samples are shown.
as §2

TSHR [9] = target: T1, TSHR; assay: Graves' disease sera-stimulated cAMP production in HEKTSHR cells; format: cell-based; settings: 1:30 dilutions of thirty GD sera
Protocol: FIG. 13A. […] After an additional 40 min, the incubation was stopped and total cAMP levels were measured by ELISA. The data are from one experiment with triplicate samples and are representative of 3 experiments. The effects of compound S2-6 were significant by paired t-test (P<0.01).
FIG. 13B. HEKTSHR cells were incubated without (Control) or with 30 μM compound S2-6 for 20 min and then 1 mM IBMX and 1:30 dilutions of thirty GD sera were added. After an additional 40 min, the incubation was stopped and total cAMP levels were measured by ELISA. […] The data are representative of 2 experiments performed in duplicate.

T1 sequence (P16473 21-764): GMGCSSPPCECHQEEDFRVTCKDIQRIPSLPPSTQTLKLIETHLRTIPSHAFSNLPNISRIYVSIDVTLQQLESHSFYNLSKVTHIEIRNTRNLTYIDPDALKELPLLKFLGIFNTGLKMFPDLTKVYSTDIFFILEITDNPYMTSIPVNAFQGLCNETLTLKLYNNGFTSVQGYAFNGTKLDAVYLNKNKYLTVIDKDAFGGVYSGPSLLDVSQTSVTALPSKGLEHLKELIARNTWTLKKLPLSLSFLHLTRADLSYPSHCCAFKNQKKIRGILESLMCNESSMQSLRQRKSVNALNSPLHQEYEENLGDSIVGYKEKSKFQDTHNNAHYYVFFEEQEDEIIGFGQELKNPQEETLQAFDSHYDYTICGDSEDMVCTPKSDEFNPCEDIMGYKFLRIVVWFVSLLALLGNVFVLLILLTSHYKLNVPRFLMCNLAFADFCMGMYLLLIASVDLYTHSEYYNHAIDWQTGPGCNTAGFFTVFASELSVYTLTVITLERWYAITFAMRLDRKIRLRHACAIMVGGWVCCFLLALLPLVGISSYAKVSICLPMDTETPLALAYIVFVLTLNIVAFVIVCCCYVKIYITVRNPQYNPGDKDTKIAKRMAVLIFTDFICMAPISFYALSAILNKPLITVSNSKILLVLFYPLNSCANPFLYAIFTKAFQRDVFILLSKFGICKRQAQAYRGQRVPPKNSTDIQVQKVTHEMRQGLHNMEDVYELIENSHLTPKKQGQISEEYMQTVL
T2 sequence (P16473 21-764): as above

SMILES: COc1ccc(C2Nc3ccccc3C(=O)N2Cc2ccco2)cc1COc1c(C)cccc1C (centres unmarked) [Compound 1, 2-(3-((2,6-dimethylphenoxy)methyl)-4-methoxyphenyl)-3-(furan-2-ylmethyl)-2,3-dihydroquinazolin-4(1H)-one]
cAMP accumulation stimulated by forskolin (adenylyl cyclase): did not decrease
cAMP accumulation stimulated by vasoactive intestinal peptide [1]: did not decrease
DIO2 mRNA level [2]: decreased
NIS mRNA level [2]: decreased
TG mRNA level [2]: decreased
TPO mRNA level [2]: decreased
TSHR mRNA level [2]: decreased
cAMP accumulation stimulated by isoproterenol (beta-adrenergic receptor): did not decrease

SMILES: COCCN1C(=O)c2ccccc2NC1c1ccc(OC)c(COc2c(C)cc(NC(C)=O)cc2C)c1 (centres unmarked) [Compound S2-29, N-(4-(2-methoxy-5-(3-(2-methoxyethyl)-4-oxo-1,2,3,4-tetrahydroquinazolin-2-yl)benzyloxy)-3,5-dimethylphenyl)acetamide]
classification from dose response of TSH-stimulated cAMP (FIG. 11) (TSHR [3]): neutral antagonists

SMILES: COc1ccc(C2Nc3ccccc3C(=O)N2Cc2ccco2)cc1CSc1c(C)cccc1C (centres unmarked) [Compound S2-8, 2-(3-((2,6-Dimethylphenylthio)methyl)-4-methoxyphenyl)-3-(furan-2-ylmethyl)-2,3-dihydroquinazolin-4(1H)-one]
classification from dose response of basal cAMP (inverse agonist activity) (TSHR [4]): neutral antagonist
classification from dose response of TSH-stimulated cAMP (FIG. 11) (TSHR [3]): neutral antagonists

SMILES: COc1ccc(C2Nc3ccccc3C(=O)N2Cc2ccco2)cc1COc1c(C)cc(NC(C)=O)cc1C (centres unmarked) [Compound S2-7, N-(4-(5-(3-(Furan-2-ylmethyl)-4-oxo-1,2,3,4-tetrahydroquinazolin-2-yl)-2-methoxybenzyloxy)-3,5-dimethylphenyl)acetamide]
classification from dose response of basal cAMP (inverse agonist activity) (TSHR [4]): inverse agonists
classification from dose response of TSH-stimulated cAMP (FIG. 11) (TSHR [3]): neutral antagonists

The next lines start with results.

classification from dose response of TSH-stimulated cAMP (FIG. 11) (TSHR [3]): neutral antagonists
SMILES: COc1ccc(C2Nc3ccccc3C(=O)N2Cc2cccnc2)cc1COc1c(C)cc(NC(C)=O)cc1C (centres unmarked) [Compound S2-17, N-(4-(2-Methoxy-5-(4-oxo-3-(pyridin-3-ylmethyl)-1,2,3,4-tetrahydroquinazolin-2-yl)benzyloxy)-3,5-dimethylphenyl)acetamide]

inhibition of basal signaling in retro-orbital fibroblasts [5]: 75%
inhibition of thyroid-stimulating antibody-stimulated signaling in retro-orbital fibroblasts [5]: 85%
classification from dose response of basal cAMP (inverse agonist activity) (TSHR [4]): inverse agonists
inhibition at 30 µM (TSHR [4]; HEK-EM293, read-out: inhibition of basal cAMP production by TSHRs at 30 μM): 53%
effect on 125I-TSH binding to TSHRs (TSHR [6]): no effect
classification from dose response of TSH-stimulated cAMP (FIG. 11) (TSHR [3]): neutral antagonists
inhibition at 30 µM (TSHR [3]; HEK-EM293, read-out: inhibition of cAMP production stimulated by an EC50 concentration of TSH at 30 μM): 53%
mode of antagonism of TSH signaling (TSHR [3]; varying TSH concentrations (Schild analysis for compound 1)): competitive
inhibition at 30 µM (TSHR [9]): 39 ± 2.6%
SMILES: COc1ccc(C2Nc3ccccc3C(=O)N2Cc2cccnc2)cc1COc1c(C)cccc1C (centres unmarked) [Compound S2-6, 2-(3-((2,6-dimethylphenoxy)methyl)-4-methoxyphenyl)-3-(pyridin-3-ylmethyl)-2,3-dihydroquinazolin-4-one]
potency and efficacy as TSHR antagonist relative to compound 1 (TSHR [7]): as potent and effective as compound 1
solubility relative to compound 1 [8]: increased solubility
inhibition of basal and GD sera TSAb up-regulation of thyroperoxidase mRNA levels (TPO mRNA): 65±2.0%

Source: patent publication US9206154B2 (The United States of America, as represented by the …, priority 2010, dated 2015)
